Data as given in patent US6284914A, “Highly water-soluble metalloproteinase inhibitors” (Fuji Yakuhin Kogyo Kabushiki Kaisha, priority 1995, dated 2001).
Structures can show the parent of a compound that is named as a salt. Where two headings read alike, the source gives them in different places.

Columns and labels:
stromelysin (MMP-3) = biological target: T1, stromelysin (MMP-3) (Homo sapiens, UniProt P08254); assay: Assay for Stromelysin Inhibitory Activity (MMP-3); format: biochemical; conditions: fluorescein-labeled casein substrate, 37° C., 2 hours, pH 7.8; read-out: Inhibitory activities for matrix metalloproeinases (MMPs), MMP-3, IC50 value
T1 construct: endogenous in cells; host or cells: human fibroblast
Description: (§1) Inhibitory activities of the compounds represented by the general formula (I) according to the invention for collagenase (metalloproteinase concerned with a tissue destruction) derived from human fibroblast were tested by the method of Y. Murawaki et al., [Journal of Hepatology, 18, p. 328-334 (1993)], and their inhibitory activities for stromelysin derived from human fibroblast were measured by the method of S. S. Twining et al., [Anal. Biochem., 143, p. 30 (1984)].
Inhibitory activities for stromelysin (MMP-3) of the compounds of Examples and comparative compounds were measured by the method of S. S. Twining et al., [Anal. Biochem., 143, p. 30 (1984)]. The latent prostromelysin was incubated with human plasmin (20 μg/ml) for the activation at 37° C. for 2 hours, and then the incubate was added with diisopropyl fluorophosphate solution (2.8 mg/ml) to stop the reaction. The assay was done by using casein labeled with fluorescein as the substrate. The activated stromelysin was added to a substrate solution (1 mg/ml) in Tris HCl buffer (50 mM, pH 7.8) containing calcium chloride (10 mM). The obtained solution was incubated at37° C. for 2 hours. The enzyme digestion forthesubstrate was stopped by adding 5% trichloroacetic acid. The indigested substrate was sedimented by centrifuging at 3000 g for 20 min. The supernatant was taken and added with Tris HCl buffer (0.5 M, pH 8.5), whereby its intensity of fluorescence was determined by the excitation wavelength (495 nm) and the measured wavelength (520 nm), and the inhibitory activity was obtained. IC50 is a concentration of a compound assayed in the digesting enzyme, whereby the splitting of the substrate was decreased to 50% compared with that attained by the enzyme alone.

[1] = Measurement of Solubility in Water; format: physicochemical; conditions: distilled water, 20±5° C., 30 min., checked by eye
Description: A compound of Examples or a comparative compound was added to distilled water and shaken vigorously at 20±5° C. for 30 seconds at 5 min. interval. After 30 min., it was checked by watching with eye whether the compound was dissolved or not.

collagenase (MMP-1) = biological target: T2, collagenase (MMP-1) (Homo sapiens, UniProt P03956); assay: Assay for Collagenase Inhibitory Activity (MMP-1); format: biochemical
T2 construct: endogenous in cells; host or cells: human fibroblast
T2 sequence (P03956 100-469): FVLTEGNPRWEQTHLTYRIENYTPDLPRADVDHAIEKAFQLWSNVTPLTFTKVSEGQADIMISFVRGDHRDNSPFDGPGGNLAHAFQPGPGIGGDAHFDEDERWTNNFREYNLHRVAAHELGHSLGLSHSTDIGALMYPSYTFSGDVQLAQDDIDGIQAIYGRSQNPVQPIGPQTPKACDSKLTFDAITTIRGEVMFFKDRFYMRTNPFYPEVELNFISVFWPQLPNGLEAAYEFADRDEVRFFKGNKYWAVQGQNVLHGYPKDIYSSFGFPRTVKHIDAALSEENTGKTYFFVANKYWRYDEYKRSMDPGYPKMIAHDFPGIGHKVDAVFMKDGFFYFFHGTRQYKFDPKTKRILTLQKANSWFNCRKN
Description: as §1
Inhibitory activities for collagenase (MMP-1) of the compounds of Examples and comparative compounds were measured by the method of Y. Murawaki et al., [Journal of Hepatology, 18, p. 328-334 (1993)]. The latent procollagenase was activated by incubating with mercury aminophenylacetate (2 mM) at 35° C. for 2 hours. The assay was done by using bovine type I collagen labeled with fluorescein as a substrate. The activated collagenase was added to the substrate solution (0.5 mg/ml) in Tris HCl buffer (50 mM, pH 7.5) containing sodium chloride (0.4 M) and calcium chloride (10 mM). The obtained solution was incubated at 35° C. for 2 hours. The enzyme digestion was stopped by the addition of o-phenanthroline (80 mM). The mixture was added with pig spleen elastase solution (25 μg/ml) in the above Tris HCl buffer, and incubated 37° C. for 10 min. The obtained solution was added with 70% ethanol and Tris HCl buffer (170 mM, pH 9.5) containing sodium chloride (0.61 M), whereby the indigested substrate was sedimented by centrifuging at 3000 g for 20 min. The supernatant was taken, and its intensity of fluorescence was determined by the excitation wavelength (495 nm) and the measured wavelength (520 nm), and the inhibitory activity was obtained. IC50 is a concentration of a compound assayed in the digesting enzyme, whereby the splitting of the substrate was decreased to 50% compared with that attained by the enzyme alone.

[2] = fluorescein-labeled bovine type I collagen substrate, 35° C., 2 hours, pH 7.5, read-out: Inhibitory activities for matrix metalloproeinases (MMPs), MMP-1, IC50 value

T1 sequence (P08254 100-477): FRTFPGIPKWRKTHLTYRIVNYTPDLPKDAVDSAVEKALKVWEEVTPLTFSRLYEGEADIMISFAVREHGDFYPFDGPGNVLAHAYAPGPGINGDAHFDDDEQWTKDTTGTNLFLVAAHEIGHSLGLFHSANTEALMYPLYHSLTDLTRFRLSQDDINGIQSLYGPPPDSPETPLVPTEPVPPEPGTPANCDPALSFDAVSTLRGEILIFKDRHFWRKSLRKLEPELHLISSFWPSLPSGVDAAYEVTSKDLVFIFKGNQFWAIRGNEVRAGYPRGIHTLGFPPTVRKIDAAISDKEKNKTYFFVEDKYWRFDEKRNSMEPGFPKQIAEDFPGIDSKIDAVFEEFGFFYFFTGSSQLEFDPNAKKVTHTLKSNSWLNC

IC50 (stromelysin (MMP-3)) [nM] | IC50 (collagenase (MMP-1); [2]) [nM] | Compound | also measured
280 | 20 | CCCOC[C@H](C(=O)N[C@@H](Cc1ccc(S(=O)(=O)[O-])cc1)C(=O)NC)C(CSC(C)C)C(=O)NO.[Na+] (mixture of isomers) [Example 6, N-[4-(N-Hydroxyamino)-2(R)-n-propyloxymethylene-3(RS)-isopropylthiomethylenesuccinyl]-L-4'-sulfophenylalanine-N-methylamide, Monosodium Salt] | Solubility in water [1]: > 120 mg/mL
5.4 | 0.4 | CNC(=O)[C@H](Cc1ccc(OS(=O)(=O)O)cc1)NC(=O)[C@H](CC(C)C)C(CCCc1ccccc1)C(=O)NO (single isomer, unassigned) [Example 3 (Isomer B), N-[4-(N-Hydroxyamino)-2(R)-isobutyl-3(R or S)-(3-phenyltrimethylene)succinyl]-O-sulfo-L-tyrosine-N-methylamide, Monosodium Salt] | Solubility in water ([1]; Monosodium Salt): 150 mg/mL
8 | 8 | CNC(=O)[C@H](Cc1ccc(S(=O)(=O)O)cc1)NC(=O)[C@H](CC(C)C)C(CSc1cccs1)C(=O)NO (single isomer, unassigned) [Example 5 (Isomer A), N-[4-(N-Hydroxyamino)-2(R)-isobutyl-3(R or S)-(thienylthiomethylene)succinyl]-L-4'-sulfophenylalanine-N-methylamide, Monosodium Salt] | solubility at 0.5 h ([1]; water): > 320 mg/mL
15 | 7 | CNC(=O)[C@H](Cc1ccc(CNC(C)=N)cc1)NC(=O)[C@H](CC(C)C)C(CCCc1ccccc1)C(=O)NO (single isomer, unassigned) [Example 10, N-[4-(N-Hydroxyamino)-2(R)-isobutyl-3(R or S)-(3-phenyltrimethylene)succinyl]-L-4'-acetimidoyliminomethylenephenylalanine-N-methylamide Monoacetate] | –
5 | 5 | CNC(=O)[C@H](Cc1ccc(C(=N)N)cc1)NC(=O)[C@H](CC(C)C)C(CCCc1ccccc1)C(=O)NO (single isomer, unassigned) [Example 17, N-[4-(N-Hydroxyamino)-2(R)-isobutyl-3(R or S)-(3-phenyltrimethylene)succinyl]-L-4'-amidinophenylalanine-N-methylamideMonoacetate] | –
110 | – | CNC(=O)[C@H](Cc1ccc(OC)cc1)NC(=O)[C@@H](CC(=O)NO)CC(C)C [Comparative Compound 1, N-[4-(N-Hydroxyamino)-2(R)-isobutylsuccinyl]-O-methyl-L-tyrosine-N-methylamide, reference compound] | solubility at 0.5 h ([1]; water): < 1 mg/mL
10 | 4 | CNC(=O)[C@H](Cc1ccc(CNC(C)=O)cc1)NC(=O)[C@H](CC(C)C)C(CCCc1ccccc1)C(=O)NO (stereo partly drawn) [Example 13, N-[4-(N-Hydroxyamino)-2(R)-isobutyl-3(RS)-(3-phenyltrimethylene)succinyl]-L-4'-acetamidomethylenephenylalanine-N-methylamide] | –
10 | 4 | CNC(=O)[C@H](Cc1ccc(CNC(=N)N)cc1)NC(=O)[C@H](CC(C)C)C(CCCc1ccccc1)C(=O)NO (stereo partly drawn) [Example 14, N-[4-(N-Hydroxyamino)-2(R)-isobutyl-3(RS)-(3-phenyltrimethylene)succinyl]-L-4'-guanidomethylenephenylalanine-N-methylamide Monoacetate] | –
6 | 500 | CC(C)C[C@@H](C(=O)N[C@@H](Cc1ccc(OS(=O)(=O)O)cc1)C(=O)Nc1cccc2ccccc12)C(CCCc1ccccc1)C(=O)NO (stereo partly drawn) [Example 18, N-[4-(N-Hydroxyamino)-2(R)-isobutyl-3(RS)-(3-phenyltrimethylene)succinyl]-O-sulfo-L-tyrosine-N-1-naphthylamide, Monosodium Salt] | –
10 | 8 | CC(C)C[C@@H](C(=O)N[C@@H](Cc1ccc(NC(=N)N)cc1)C(=O)Nc1ccccc1)C(CCCc1ccccc1)C(=O)NO (stereo partly drawn) [Example 19, N-[4-(N-Hydroxyamino)-2(R)-isobutyl-3(RS)-(3-phenyltrimethylene)succinyl]-L-4'-guanidophenylalanine-N-phenylamide Monoacetate] | –

More lines, now with the values behind:

Compound | IC50 (stromelysin (MMP-3)) [nM] | IC50 (collagenase (MMP-1); [2]) [nM] | also measured
CNC(=O)[C@H](Cc1ccc(OS(=O)(=O)O)cc1)NC(=O)C(CC(=O)NO)CC(C)C (single isomer, unassigned) [Example 1 (Isomer A), N-[4-(N-Hydroxyamino)-2(R or S)-isobutylsuccinyl]-O-sulfo-L-tyrosine-N-methylamide, Monosodium Salt] | – | – | solubility at 0.5 h ([1]; water): > 240 mg/mL
CNC(=O)[C@H](Cc1ccc(OS(=O)(=O)O)cc1)NC(=O)C(CC(=O)NO)CC(C)C (single isomer, unassigned) [Example 1 (Isomer B), N-[4-(N-Hydroxyamino)-2(R or S)-isobutylsuccinyl]-O-sulfo-L-tyrosine-N-methylamide, Monosodium Salt] | 500 | 5.1 | –
CNC(=O)[C@H](Cc1ccc(OS(=O)(=O)O)cc1)NC(=O)[C@H](CC(C)C)C(CCCc1ccccc1)C(=O)NO (single isomer, unassigned) [Example 3 (Isomer A), N-[4-(N-Hydroxyamino)-2(R)-isobutyl-3(R or S)-(3-phenyltrimethylene)succinyl]-O-sulfo-L-tyrosine-N-methylamide, Monosodium Salt] | – | – | solubility at 0.5 h ([1]; water): > 100 mg/mL
CNC(=O)[C@H](Cc1ccc(S(=O)(=O)O)cc1)NC(=O)[C@H](CC(C)C)C(CSc1cccs1)C(=O)NO (single isomer, unassigned) [Example 5 (Isomer B), N-[4-(N-Hydroxyamino)-2(R)-isobutyl-3(R or S)-(thienylthiomethylene)succinyl]-L-4'-sulfophenylalanine-N-methylamide, Monosodium Salt] | – | – | Solubility in water ([1]; Monosodium Salt): > 300 mg/mL
CNC(=O)[C@H](Cc1ccc(OP(=O)(O)O)cc1)NC(=O)C(CC(=O)NO)CC(C)C (single isomer, unassigned) [Example 9, N-[4-(N-Hydroxyamino)-2(R or S)-isobutylsuccinyl]-O-phospho-L-tyrosine-N-methylamide, Disodium Salt] | 400 | – | solubility at 0.5 h [1]: > 200 mg/mL; IC50 (collagenase (MMP-1)): 17 nM
CNC(=O)[C@H](Cc1ccccc1)NC(=O)[C@H](CC(C)C)[C@H](CSc1cccs1)C(=O)NO [Comparative Compound 3, N-[4-(N-Hydroxyamino)-2(R)-isobutyl-3(S)-thienyltiomethylenesuccinyl]-L-phenylalanine-N-methylamide, reference compound] | – | – | solubility at 0.5 h ([1]; water): < 1 mg/mL
CNC(=O)[C@H](Cc1ccc(CNC(=N)c2ccccc2)cc1)NC(=O)[C@H](CC(C)C)C(CCCc1ccccc1)C(=O)NO (stereo partly drawn) [Example 12, N-[4-(N-Hydroxyamino)-2(R)-isobutyl-3(RS)-(3-phenyltrimethylene)succinyl]-L-4'-benzimidoyliminomethylenephenylalanine-N-methylamide Monoacetate] | 10 | 10 | –
